Results from patent publication US20060089395A1, “Nf-kb activation inhibitors” (priority 2002, published 2006).
“Also recorded” adds a separate entry of the source. Where two headings read alike, the source gives them in different places.

Assays:
[1] = tested on: NF-κ B; assay: Inhibitory activity of NF-κ B activation, luciferase reporter assay in HepG2 under TNF-α stimulation; assay type: cell-based, human
In short: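 Readout is firefly luciferase luminescence, expressed as inhibition versus compound-free wells. Before this, HepG2 cells carrying a transiently transfected 5×NF-κB-site luciferase plasmid (6–24 h post-transfection) received test compound plus TNF-α (40 ng/ml) for 4 h.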

[2] = tested on: IL-6; assay: Inhibition of IL-6 production by TNFα stimulation in synovial fibroblasts derived from a rheumatoid patient (ELISA); assay type: cell-based, human; details: for IC50: synovial fibroblasts, 10 ng/ml TNFα, 3 days, read-out: Inhibition against Mediator Release IC50(nM) IL-6
Description: (§1) Synovial fibroblasts (Human Synoviocyte (RA-Positive), Toyobo, T4040-05) were cultured for 3 days in a medium containing 10 ng/ml of TNFα and a test compound. IL-6 and IL-8 in the supernatant were measured by the ELISA method, and PGE2 (prostaglandin E2) was measured by the EIA method.

[3] = tested on: IL-8; assay: Inhibition of IL-8 production by TNFα stimulation in synovial fibroblasts derived from a rheumatoid patient (ELISA); assay type: cell-based, human; details: for IC50: synovial fibroblasts, 10 ng/ml TNFα, 3 days, read-out: Inhibition against Mediator Release IC50(nM) IL-8
Description: as §1

[4] = tested on: PGE2; assay: Inhibition of PGE2 production by TNFα stimulation in synovial fibroblasts derived from a rheumatoid patient (EIA); assay type: cell-based, human; details: for IC50: synovial fibroblasts, 10 ng/ml TNFα, 3 days, read-out: Inhibition against Mediator Release IC50(nM) PGE2
Description: as §1

[5] = tested on: Vascular smooth muscle cells of normal coronary artery (Cryo CASMC); assay: Inhibitory test against proliferation of vascular smooth muscle cells of normal coronary artery under proliferation stimulation (MTS assay); assay type: cell-based; details: FGF and EGF stimulation, 72 hours
Description: Vascular smooth muscle cells of normal coronary artery (Cryo CASMC) were cultured for 2 hours in the presence or absence of a test substance in DMEM medium containing 0.5% of FBS and insulin (5 u g/ml). Then, FGF and EGF were added for proliferation stimulation. The mixture was cultured for 72 hours and proliferation of the cells were measured by the MTS assay. The results aree shown in the following

[6] = Homo sapiens, 1 μg/mL, HepG2, TNF-α (40 ng/ml), 4 hours, read-out: Inhibitory Ratio of NF-κ B Activation(%) Drug Concentration 1 μg/mL
[7] = Homo sapiens, 10 μg/mL, HepG2, TNF-α (40 ng/ml), 4 hours, read-out: Inhibitory Ratio of NF-κ B Activation(%) Drug Concentration 10 μg/mL
[8] = 1 μg/mL, HepG2, TNF-α (40 ng/ml), 4 hours
[9] = 10 μg/mL, HepG2, TNF-α (40 ng/ml), 4 hours
[10] = rheumatic patient-derived synovial fibroblasts under TNFα stimulation

Structure (SMILES)	Inhibitory Ratio of Proliferation(%) Compound Concentration 250 nM [5] [%]	Inhibitory Ratio of Proliferation(%) Compound Concentration 500 nM [5] [%]	Inhibitory Ratio of NF-κ B Activation(%) Drug Concentration 1 μg/mL [1, 8] [%]	Inhibitory Ratio of NF-κ B Activation(%) Drug Concentration 10 μg/mL [1, 9] [%]	IC50 [2] [nM]	IC50 [3] [nM]	IC50 [4] [nM]	further results
CC(C)(C)c1nc(NC(=O)c2cc(Br)ccc2O)sc1N1CCN(c2ccccc2)CC1 [Compound No. 207, 5-Bromo-N-{4-[(1,1-dimethyl)ethyl]-5-(4-phenylpiperazin-1-yl)thiazol-2-yl}-2-hydroxybenzamide]	52.5	84						inhibition at 1 µg/mL [1, 6]: 92.5%; inhibition at 10 µg/mL [1, 7]: 95.9%; IC50 ([2]; Homo sapiens, Fibroblast, 72 h): 641 nM; IC50 ([3]; Homo sapiens, Fibroblast, 72 h): 832 nM; IC50 ([4]; Homo sapiens, Fibroblast, 72 h): 834 nM
O=C(Nc1cc(C(F)(F)F)cc(C(F)(F)F)c1)c1cc(-n2cccc2)ccc1O [Compound No. 27]			93.8	97.9	355	527	532	
CC(C)(C)C(=O)c1sc(NC(=O)c2cc(Br)ccc2O)nc1C(C)(C)C [Compound No. 201]	59.8	84.4	86.8	97.5	317	599	53	
O=C(Nc1cc(C(F)(F)F)cc(C(F)(F)F)c1)c1cc(-c2ccsc2)ccc1O [Compound No. 29]	52.2	90.4	81.7	92.9				
COc1ccc(Oc2ccc(C(F)(F)F)cc2NC(=O)c2cc(Cl)ccc2O)cc1 [Compound No. 253]	84.1	91	96.3	99.5				
O=C(Nc1cc(C(F)(F)F)cc(C(F)(F)F)c1)c1ccc2ccccc2c1O [Compound No. 71]	81.6	92.4	89.6	95.0				
CC(C)(C)c1cc(NC(=O)c2cc(Br)ccc2O)cc(C(C)(C)C)c1 [Compound No. 140]	4.3	86.1	70.9	82.0	808		21	
O=C(Nc1cc(C(F)(F)F)ccc1C(F)(F)F)c1cc(Br)ccc1O [Compound No. 268]	5.6	9.8	87.1	98.4				
CC(C)(C)C(=O)c1sc(NC(=O)c2cc(Cl)ccc2O)nc1C(C)(C)C [Compound No.199, 5-Chloro-N-{4-[(1,1-dimethyl)ethyl]-5-[(2,2-dimethyl)propionyl]thiazol-2-yl)-2-hydroxybenzamide]	35.1	84.6						inhibition at 0.1 µg/mL ([1]; Homo sapiens, HepG2, 4 h, 0.1 μg/ml, comparison table, reporter assay, read-out: Inhibitory Ratio of NF-κB Activation (%) 0.1 μg/ml): 19.6%; inhibition at 1 µg/mL ([1]; Homo sapiens, HepG2, 4 h, 1 μg/ml, comparison table, reporter assay, read-out: Inhibitory Ratio of NF-κB Activation (%) 1 μg/ml): 96.4%; inhibition at 10 µg/mL ([1]; Homo sapiens, HepG2, 4 h, 10 μg/ml, comparison table, reporter assay, read-out: Inhibitory Ratio of NF-κB Activation (%) 10 μg/ml): 98.4%; inhibition at 1 µg/mL [1, 6]: 96.4%; inhibition at 10 µg/mL [1, 7]: 98.4%; IC50 ([2]; Homo sapiens, Fibroblast, 72 h): 309 nM; IC50 ([3]; Homo sapiens, Fibroblast, 72 h): 458 nM; IC50 ([4]; Homo sapiens, Fibroblast, 72 h): 68 nM
O=C(Nc1cc(C(F)(F)F)cc(C(F)(F)F)c1)c1cc(Br)ccc1O [compound 6]	88.0	94.8	94.9	98.6	352	351	358	
O=C(Nc1cc(C(F)(F)F)cc(C(F)(F)F)c1)c1cc(C=Cc2ccccc2)ccc1O [Compound No. 19]	34.0	88.6	95.5	96.9				
COc1cc(NC(=O)c2cc(Br)ccc2O)cc(C(F)(F)F)c1 [Compound No. 93]	12.1	87.2	84.5	97.2	130	753	47	
O=C(Nc1cc(C(F)(F)F)cc(C(F)(F)F)c1)c1c(O)cccc1F [Compound No. 63]			85.4	85.0	513	786	439	
O=C(Nc1cc(C(F)(F)F)cc(C(F)(F)F)c1)c1ccc(Cl)cc1O [Compound No. 51]	26.2	86.6	90.5	98.2	874	832	863	
COc1ccc(C(C)(C)C)cc1NC(=O)c1cc(Cl)ccc1O [Compound No. 135, 5-chloro-N-{5-[(1,1-dimethyl)ethyl]-2-methoxyphenyl}-2-hydroxybenzamide]								inhibition at 1 µg/mL [1, 6]: 86.2%; inhibition at 10 µg/mL [1, 7]: 99.2%; IC50 ([2]; Homo sapiens, Fibroblast, 72 h): 61 nM; inhibition of the production of IL-6 (in words) [2, 10]: potently inhibited; also recorded: strongly inhibited; inhibition of the production of IL-8 (in words) [3, 10]: potently inhibited; also recorded: strongly inhibited; IC50 ([4]; Homo sapiens, Fibroblast, 72 h): 41 nM; inhibition of the production of PGE2 (in words) [4, 10]: potently inhibited; also recorded: strongly inhibited
O=C(Nc1cc(C(F)(F)F)cc(C(F)(F)F)c1)c1c(O)ccc2ccccc12 [Compound No. 73]			93.1	97.9	337	670	662	
O=C(Nc1cc(C(F)(F)F)cc(C(F)(F)F)c1)c1cc(-c2ccccc2)ccc1O [Compound No. 23]	31.6	89	91.8	96.8	540	876	809	
